Data as given in PMC7956476, “Quinoline Functionalized Schiff Base Silver (I) Complexes: Interactions with Biomolecules and In Vitro Cytotoxicity, Antioxidant and Antimicrobial Activities” (Molecules, 2021).
≈ marks a conversion by molar mass, not a printed value. Where two headings read alike, the source gives them in different places.

Legend:
[1] = tested on: Staphylococcus aureus ATCC 25923; design: method as in doi:10.1016/j.poly.2019.06.038; settings: standard; S. aureus; cited from earlier work
[2] = tested on: Staphylococcus aureus ATCC 700699 (methicillin-resistant); design: method as in doi:10.1016/j.poly.2019.06.038; settings: standard; cited from earlier work
[3] = tested on: Pseudomonas aeruginosa ATCC 27853; design: method as in doi:10.1016/j.poly.2019.06.038; settings: standard; P. aeruginosa; cited from earlier work
[4] = tested on: Salmonella typhimurium ATCC 14026; settings: standard; S. typhi; cited from earlier work
[5] = tested on: Escherichia coli ATCC 25922; design: method as in doi:10.1016/j.poly.2019.06.038; settings: standard; E. coli; cited from earlier work
[6] = tested on: Escherichia coli ATCC 25922; experiment: Minimum inhibitory concentration (MIC), spotting on Müeller–Hinton agar; assay type: cell-based; settings: Gram − Ve; E. coli; 37 °C, 18 h
Experimental: (§1) Sterilized Nutrient agar medium was first prepared by dissolving 38 g of Müeller–Hinton agar (MHA) (Biolab, Midrand, Africa) in distilled water (1 L). […] The cooled Agar medium was poured in Petri dishes while ensuring a uniform 4 mm depth of the medium and cooling further to ambient temperature.
(§2) These bacteria were inoculated in a sterilized Nutrient Broth (NB) (Biolab, Midrand, Africa) through streak plate technique and incubated at 37 °C for 18 h. The nutrient broth was sterilized by dissolving 1.3 g in distilled water (100 mL). Ca. 10 mL of the nutrient broth was transferred into a cotton wool-plugged test tubes and wrapped with an aluminium foil. […] Following this was the isolation of a single colony of the bacteria and inoculated into a 10 mL sterile NB which was then incubated in a shaking incubator at 37 °C for 18 h. Each of the bacteria strain concentrations was adjusted with sterile distilled water to get a final concentration of 1.5 × 10^8 cfu/mL, i.e., 0.5 Mc Farland’s Standard using a densitometer (Mc Farland Latvia). The bacteria were lawn inoculated on the set MHA Petri dishes using a sterile cotton swab. Screening of L1–L5 and Q1–Q15 for antibacterial activity was first carried out by spotting 5 µL of their solution (prepared from the dissolution of 1000 µg of the L1–L5 and Q1–Q15 in 1 mL dimethyl sulfoxide (DMSO)) on an MHA petri dish and incubated at 37 °C for 18 h. The antibacterial activity was determined by looking out for a clear zone at the spotting point.

[7] = tested on: Klebsiella pneumoniae ATCC 31488; experiment: as above; assay type: cell-based; settings: versus the standard (0.8 µg/mL)
Experimental: as §1, §2

[8] = tested on: Salmonella typhimurium ATCC 14026; experiment: as above; assay type: cell-based; settings: Gram − Ve; S. typhi; 37 °C, 18 h
Experimental: as §1, §2

[9] = tested on: Staphylococcus aureus ATCC 25923; experiment: as above; assay type: cell-based; settings: Gram + Ve; S. aureus; 37 °C, 18 h
Experimental: as §1, §2

[10] = tested on: Staphylococcus aureus ATCC 700699 (methicillin-resistant); experiment: as above; assay type: cell-based; settings: Gram + Ve; methicillin-resistant S. aureus; 37 °C, 18 h
Experimental: as §1, §2

[11] = Ferric reducing antioxidant power (FRAP) assay; assay type: biochemical; settings: done in triplicate
Description: Antioxidants are important in protecting the human body against damage by reactive oxygen species (ROS). Accumulation of ROS in the cells may lead to damage of the DNA, RNA, and proteins which subsequently leads to several physiological disorders such as cardiovascular disease, diabetes, rheumatism, atherosclerosis, cancer, aging and cell death. […] The free radical scavenging ability of all ligands and complexes in this study were investigated using ferric reducing antioxidant power (FRAP). In antioxidant studies, FRAP assay is often preferred because it is simple, fast, economical, and direct in antioxidant measurement. FRAP assay is based on the electron-donating ability of an antioxidant compound. This involves the reduction of a colorless Fe^3+ tripyridyltriazine complex (Fe^3+ (TPTZ)) to an intense blue-colored Fe^2+ tripyridyltriazine complex (Fe^2+ (TPTZ)) by the electron-donating antioxidants at low pH [69]. The reducing power is to determine the reductive ability of the test compounds.
Antioxidant activity studies of L1–L5 and Q1–Q15 were done using ferric reducing antioxidant power (FRAP) assay. The ferric reducing antioxidant power assay is often used to evaluate the ability of an antioxidant to donate an electron. […] The resulting mixture was incubated at 50 °C for 20 min, and 2.5 mL of 10% trichloroacetic acid was added to acidify the mixture. After that, 1 mL of the acidified mixture was added to 1 mL of distilled water and 0.5 mL of 0.1% FeCl3. The absorbance of the resulting solution was then measured at 700 nm. The antioxidant power of the compounds was expressed as a percentage of ferric reducing antioxidant power Ascorbic acid equivalent, as shown in Equation (4). (4) % FRAP =Absorbance of Absorbance of Sample/Absorbance of Ascorbic Acid ×100

calf thymus DNA (CT-DNA) = experiment: CT-DNA electronic absorption titration (Wolfe–Shimer); assay type: binding; settings: intrinsic binding constant, absorption titration, PBS pH 7.2
Experimental: The interaction of the L1–L5 and complexes Q1–Q15 with calf thymus-DNA was carried out in a Phosphate buffer saline solution pH 7.2 stored at 4 °C. The DNA stock solution was prepared by dissolving CT-DNA sodium salt in Phosphate buffer saline solution with continuous stirring overnight. It was filtered and stored at 4 °C and used within four days. […] A fixed amount of the L1–L5 and complexes Q1–Q15 (50 µM) were prepared by dissolving an appropriate amount in DMSO. […] Therefore, in all the experimental of the interaction of L1–L5 and complexes Q1–Q15 with biomolecules, the final concentration of DMSO in the incubation mixture was ~2% (v/v).
The binding modes of L1–L5 and complexes Q1–Q15 to CT-DNA were characterized through electronic absorption titration by varying concentrations of CT-DNA (0–30 µM) in phosphate buffer saline solution against fixed concentrations (20 µM) of L1–L5 and complexes Q1–Q15. […] The absorbance of CT-DNA is cancelled by adding equivalent amounts of CT-DNA to both the tested compounds and the reference solutions.

CT-DNA-EB adduct = experiment: Fluorescence competitive displacement of ethidium bromide from CT-DNA; assay type: binding, calf; settings: for CT-DNA-EB-Complex Ksv (M^−1) × 10^4: Stern–Volmer quenching constant, EB displacement, 25 °C; for CT-DNA-EB-Complex Kq (M^−1S^−1) × 10^12: bimolecular quenching constant, Ksv = Kqτo, τo 10^−8 s; for CT-DNA-EB-Complex Kbin (M^−1) × 10^5: binding constant from double-logarithmic plot
Description: The Stern–Volmer plot approach was used based on the fact that the Stern–Volmer plots for Q1–Q15 (Figure 5c), were linear an indication of only one mechanism for the quenching fluorescence, i.e., either dynamic or static. […] (1) Ksv=Kqτo where Ksv, Kq, and τo represent Stern–Volmer quenching constant, bimolecular quenching constant, and an average lifetime of the fluorophore in the absence of the quencher, respectively. τₒ normally takes about 10^−8 s in biomacromolecules.
The double-logarithmic Equation (2) was used in determining the binding constant of complexes Q1–Q15 and CT-DNA. (2) logFo−F/F=logKb+n logQ
A competitive displacement study was carried out using fluorescence spectroscopy between CT-DNA pre-treated with ethidium bromide (EB) and complexes Q1–Q15 to establish the complexes′ actual mode of binding to CT-DNA. […] The competitive luminescence displacement assay was done using a modified method. Pre-treated 15 µM solution of EB with 15 µM of CT-DNA was prepared in a phosphate buffer of pH 7.2 and left to equilibrate for 30 min. Keeping CT-DNA-EB concentrations constant, different concentrations (0–20 µM) of the complexes were added at 8 min incubation interval at room temperature. The fluorescence quenching ability of CT-DNA bound EB by the complexes were recorded in the wavelength range of 530–700 nm with an excitation wavelength at 525 nm at 25 °C. (6) Fo/F=1+KSVQ=1+KqτoQ
A Stern–Volmer (Equation (6)) was used to evaluate the CT-DNA-EB fluorescence quenching of the complexes. Where Fo and F denote the relative fluorescence intensities of CT-DNA in the absence and presence of the quencher, Ksv, Stern–Volmer quenching constant, [Q], quencher concentration, Kq, bimolecular quenching constant and τo, average lifetime of the fluorophore in the absence of the quencher which is typically equal to 10^−8 s in biomacromolecules.

[12] = biological target: bovine serum albumin (BSA) (Bos taurus, UniProt P02769); experiment: Albumin binding by absorption spectroscopy titration
Sequence of bovine serum albumin (BSA) (P02769 25-607): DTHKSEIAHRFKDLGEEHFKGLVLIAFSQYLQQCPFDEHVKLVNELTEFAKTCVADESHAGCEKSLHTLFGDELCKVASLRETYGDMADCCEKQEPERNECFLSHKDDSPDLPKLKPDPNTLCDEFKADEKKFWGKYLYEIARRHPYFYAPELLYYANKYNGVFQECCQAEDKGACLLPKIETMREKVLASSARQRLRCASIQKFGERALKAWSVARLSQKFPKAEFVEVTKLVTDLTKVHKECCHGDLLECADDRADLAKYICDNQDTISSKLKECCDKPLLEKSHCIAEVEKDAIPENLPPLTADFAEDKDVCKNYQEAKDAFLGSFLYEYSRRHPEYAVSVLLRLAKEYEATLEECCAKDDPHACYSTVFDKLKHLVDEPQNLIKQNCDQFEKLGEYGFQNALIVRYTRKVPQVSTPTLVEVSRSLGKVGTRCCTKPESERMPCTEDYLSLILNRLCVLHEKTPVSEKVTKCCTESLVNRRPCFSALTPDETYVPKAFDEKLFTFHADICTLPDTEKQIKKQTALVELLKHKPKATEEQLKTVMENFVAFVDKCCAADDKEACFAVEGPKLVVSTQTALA
Description: Bovine serum albumin (BSA) was used as the protein standard in this study because of its close resemblance to human serum albumin (HSA), its stability, high solubility, neutrality in many biochemical reactions and low cost. In protein binding study, absorption spectroscopy titration is a known method used in studying the conformational changes in proteins, and this protein is characterized by an intense absorbance peak at 280 nm depicting the microenvironment around tyrosine and tryptophan residue polarity.
The absorbance assay of albumin binding is a very simple method used in identifying the conformational changes in protein. […] A stock solution of bovine serum albumin (BSA) was prepared by dissolving an appropriate amount of BSA in phosphate buffer saline solution (pH 7.2) under constant stirring for 1 h at 25 °C. It was kept at 4 °C and used within four days. […] The stock solution of the complex was prepared by dissolving 1 mmol of the complexes in DMSO. The absorption titration assay was done by adding different concentrations (0–10 µM) of the complexes to a constant BSA concentration (6 µM). The sample solution was incubated after each addition of the concentrations for 10 min at 25 °C before recording the absorbance at λmax 280 nm.

[13] = tested on: Pseudomonas aeruginosa ATCC 27853; experiment: Minimum inhibitory concentration (MIC), spotting on Müeller–Hinton agar; assay type: cell-based; settings: Gram − Ve; P. aeruginosa; 37 °C, 18 h
Experimental: as §1, §2

Row | Structure (SMILES) | Minimum inhibitory concentration, SA [1] | Minimum inhibitory concentration, MRSA [2] | Minimum inhibitory concentration, PA [3] | Minimum inhibitory concentration, ST [4] | Minimum inhibitory concentration, EC [5] | Minimum inhibitory concentration, EC [6] | activity times higher than the standard against K. pneumoniae [7] | Minimum inhibitory concentration, ST [8] | Minimum inhibitory concentration, SA [9] | Minimum inhibitory concentration, MRSA [10] | Antioxidant (IC50 mg/mL) FRAP [11] | CT-DNA-Cmp. Kb (M^−1) × 10^5 (calf thymus DNA (CT-DNA)) | CT-DNA-EB-Complex Ksv (M^−1) × 10^4 (CT-DNA-EB adduct) | CT-DNA-EB-Complex Kq (M^−1S^−1) × 10^12 (CT-DNA-EB adduct) | CT-DNA-EB-Complex Kbin (M^−1) × 10^5 (CT-DNA-EB adduct) | Protein-Complex Kb (M^−1) × 10^4 [12] | Minimum inhibitory concentration, PA [13]
1 | O=C(O)c1cn(C2CC2)c2cc(N3CCNCC3)c(F)cc2c1=O [Ciprofloxacin] | 25 µg/mL (≈ 75.4 µM) | 25 µg/mL (≈ 75.4 µM) | 0.2 µg/mL (≈ 0.604 µM) | 0.4 µg/mL (≈ 1.21 µM) | 1.6 µg/mL (≈ 4.83 µM) | – | – | – | – | – | – | – | – | – | – | – | –
2 | C(=NCc1cccs1)c1ccc2ccccc2n1.C(=NCc1cccs1)c1ccc2ccccc2n1.O=[N+]([O-])[O-].[Ag+] [Complex Q5, [Ag(L5)2]NO3] | – | – | – | – | – | 1.6 µg/mL | 32 times | 12.5 µg/mL | 50 µg/mL | 100 µg/mL | 2.04 ± 0.0032 mg/mL | 4.00 (M^−1) × 10^5 | 2.31 (M^−1) × 10^4 | 2.31 (M^−1S^−1) × 10^12 | 1.03 (M^−1) × 10^5 | 5.95 (M^−1) × 10^4 | –
3 | Clc1ccc(N=Cc2ccc3ccccc3n2)cc1.Clc1ccc(N=Cc2ccc3ccccc3n2)cc1.[Ag+].[O-][Cl+3]([O-])([O-])[O-] [Complex Q8, [Ag(L3)2]ClO4] | – | – | – | – | – | 1.6 µg/mL | 64 times | 25 µg/mL | 50 µg/mL | 25 µg/mL | 3.27 ± 0.093 mg/mL | 30.0 (M^−1) × 10^5 | 3.98 (M^−1) × 10^4 | 3.98 (M^−1S^−1) × 10^12 | 1.02 (M^−1) × 10^5 | 9.48 (M^−1) × 10^4 | 0.1 µg/mL
4 | Clc1ccc(N=Cc2ccc3ccccc3n2)cc1.Clc1ccc(N=Cc2ccc3ccccc3n2)cc1.O=S(=O)([O-])C(F)(F)F.[Ag+] [Complex Q13, [Ag(L3)2]CF3SO3] | – | – | – | – | – | 25 µg/mL | – | 50 µg/mL | 25 µg/mL | 50 µg/mL | 2.22 ± 0.0055 mg/mL | 4.29 (M^−1) × 10^5 | 3.33 (M^−1) × 10^4 | 3.33 (M^−1S^−1) × 10^12 | 5.74 (M^−1) × 10^5 | 2.89 (M^−1) × 10^4 | 12.5 µg/mL
5 | Cc1ccc(N=Cc2ccc3ccccc3n2)cc1.Cc1ccc(N=Cc2ccc3ccccc3n2)cc1.O=S(=O)([O-])C(F)(F)F.[Ag+] [Complex Q14, [Ag(L4)2]CF3SO3] | – | – | – | – | – | 25 µg/mL | – | 50 µg/mL | 50 µg/mL | 1000 µg/mL | 3.55 ± 0.022 mg/mL | 3.33 (M^−1) × 10^5 | 2.98 (M^−1) × 10^4 | 2.98 (M^−1S^−1) × 10^12 | 5.31 (M^−1) × 10^5 | 7.50 (M^−1) × 10^4 | ~0.8 µg/mL
